Experimental findings from patent US20220127232A1, “HISTONE ACETYLTRANSFERASE MODULATORS AND COMPOSITIONS AND USES THEREOF” (The Trustees of Columbia University in the City of New York, priority 2019, published 2022) are described below.

This experiment has as its system hippocampal slices from WT mice. As to the kind of experiment: Long-term potentiation (LTP) in hippocampal slices perfused with oTau or oAβ. It counts as cell-based. The source says: Synaptic dysfunction is a major hallmark of AD (Histol Histopathol, 1995. 10(2): p. 509-19; herein incorporated by reference in its entirety). An aspect of the drug screening protocol can include a measurement of the effect of compounds onto synaptic function. Amyloid-beta (Aβ) is a toxic peptide that is thought to underlie subtle amnesic changes occurring at early stages of Alzheimer's disease. It impairs both memory and its electrophysiological surrogate, long-term potentiation (LTP). LTP can be examined because it is a type of synaptic plasticity thought to underlie learning and memory. RA010115 can rescue the Aβ-induced reduction of LTP, and other compounds can also be screened to identify those that can re-establish normal LTP. The compounds can be applied for 20 min. Controls can be performed on slices in the absence of Aβ, and mice treated with compound. Tau is another peptide that is involved in cell to cell communication, and impairs both memory and LTP in animal models of AD and other tauopathies. FIG. 26 is a graph showing that RA010115 rescues oligomeric Tau (oTau)- and oligomeric Aβ (o Aβ)-induced LTP deficits. LTP was impaired in hippocampal slices from WT mice perfused with oTau (50 nM) and oAβ (200 nM), whereas there was no impairment in slices treated with RA10115 or vehicle. LTP was restored in slices perfused with RA010115 and either oTau or oAβ. The horizontal solid bar represents oAβ and oTau perfusion while the horizontal dashed bar represents RA010115. The three arrows correspond to the theta-burst stimulation. […]

“Also recorded” adds a separate entry of the source.

`COc1cccc(OC)c1C(=O)Nc1ccc(Cl)c(C(F)(F)F)c1` [RA010115]: the “LTP in slices treated with compound alone” value (no oTau or oAβ) is reported as “no impairment”. Also, for the setting “slices perfused with compound and either oTau (50 nM) or oAβ (200 nM)”, the “oTau- and oAβ-induced LTP deficits” value is given as “restored; also recorded: rescues”.
